In US9610274B2, “Methods for treating bipolar disorder” (priority 2010, dated 2017):

What was measured:
[1] = target: T1, hSERT (human serotonin transporter) (Homo sapiens, UniProt P31645); experiment: Inhibition of [3H]serotonin uptake in HEK-hSERT cells; type: cell-based
T1 construct: expressed in transfected cells; host or cells: HEK293 (ATCC), puromycin-selected clonal cells

[2] = test system: adult human subjects with moderate or severe major depression without psychotic features; experiment: Randomized double-blind placebo- and active-controlled 6-week study in major depression; type: in vivo; conditions: for MADRS response rate / MADRS remission rate: Week 6; for MADRS response rate: >50% improvement in MADRS total score; for MADRS remission rate: MADRS total score less than 9; for 3 Atypical items of HAM-D 31, mean result / CGI-S score, mean result / MADRS core mood subscale, mean result / MADRS sadness (Items 1 + 2), mean result / MADRS total score (primary), mean result / MADRS total score, mean result: change from baseline at Week 6; for ABCD questionnaire items with statistically significant superiority to placebo: post hoc analyses, of 51 items, U.S. sites
Procedure: The primary objective of this study was to determine the efficacy of 2 target doses of test compound (200 and 400 mg/day) in comparison with placebo during 6 weeks of treatment in adult human subjects with moderate or severe major depression without psychotic features. An active comparator (paroxetine) was included to assist in distinguishing a negative study from a failed study. In addition, an exit interview was intended to gather information on unexpected benefits of the test compound in order to refine the clinical development program. […] In addition, positive effects of the test compound on ratings of physical energy/fitness, reduction in sadness or depression and mental energy or motivation.
This was a randomized, double-blind, parallel-group, active, and placebo-controlled, multicenter study conducted in the U.S. (23 centers) and Canada (4 centers). There were 2 phases: a pretreatment phase (screening/washout and a baseline visit) and a 6-week, double-blind treatment phase. Paroxetine, a positive control, was included to evaluate assay sensitivity. After washout (if needed) of prohibited substances, subjects were randomly assigned (1:1:1:1) to receive the test compound titrated to a target dose of 200 mg/day or 400 mg/day, matching placebo, or a fixed dose (20 mg/day) of paroxetine. Study drug was given twice daily for 6 weeks. Efficacy and safety were assessed weekly during the double-blind phase. Subjects completing the study underwent an Exit Interview (“Your Health and Well-Being”) and completed an Assessment of Benefits of Clinical-trial Drug-treatment (ABCD) questionnaire (U.S. sites only).

[3] = Per-Protocol (LOCF), TC 200 mg/day
[4] = Per-Protocol (LOCF), TC 400 mg/day

T1 sequence (P31645 whole entry): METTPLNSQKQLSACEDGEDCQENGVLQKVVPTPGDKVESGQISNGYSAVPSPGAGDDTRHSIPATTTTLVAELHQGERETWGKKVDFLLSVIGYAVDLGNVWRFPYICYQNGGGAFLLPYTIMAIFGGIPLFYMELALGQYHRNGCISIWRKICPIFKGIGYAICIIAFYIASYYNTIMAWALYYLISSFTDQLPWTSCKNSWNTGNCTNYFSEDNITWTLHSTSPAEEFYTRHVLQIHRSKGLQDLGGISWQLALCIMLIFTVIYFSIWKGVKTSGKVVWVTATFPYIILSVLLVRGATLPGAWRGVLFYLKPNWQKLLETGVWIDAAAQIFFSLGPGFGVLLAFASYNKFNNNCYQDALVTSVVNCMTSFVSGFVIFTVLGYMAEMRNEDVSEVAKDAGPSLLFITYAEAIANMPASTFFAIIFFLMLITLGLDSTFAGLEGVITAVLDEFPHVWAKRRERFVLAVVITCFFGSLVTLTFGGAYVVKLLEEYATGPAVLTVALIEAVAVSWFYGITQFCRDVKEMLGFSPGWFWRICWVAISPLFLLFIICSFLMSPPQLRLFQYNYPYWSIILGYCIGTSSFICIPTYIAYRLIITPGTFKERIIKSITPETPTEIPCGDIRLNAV

NC(=O)OC[C@H](N)Cc1ccccc1 [test compound, O-carbamoyl-(D)-phenylalaninol]
IC50 [1]: > 100 µM | MADRS response rate ([2]; ITT (LOCF), TC 200 mg/day): 36% | MADRS response rate ([2]; ITT (LOCF), TC 400 mg/day): 41% | MADRS remission rate ([2]; ITT (LOCF), TC 200 mg/day): 15% | MADRS remission rate ([2]; ITT (LOCF), TC 400 mg/day): 19% | 3 Atypical items of HAM-D 31, mean result ([2]; ITT (LOCF), TC 200 mg/day): −0.4 | CGI-S score, mean result ([2]; ITT (LOCF), TC 200 mg/day): −1.2 | MADRS core mood subscale, mean result ([2]; ITT (LOCF), TC 200 mg/day): −8.6 | MADRS sadness (Items 1 + 2), mean result ([2]; ITT (LOCF), TC 200 mg/day): −3.2 | MADRS total score (primary), mean result ([2]; ITT (LOCF), TC 200 mg/day): −12.1 | 3 Atypical items of HAM-D 31, mean result ([2]; ITT (LOCF), TC 400 mg/day): −0.8 | CGI-S score, mean result ([2]; ITT (LOCF), TC 400 mg/day): −1.3 | MADRS core mood subscale, mean result ([2]; ITT (LOCF), TC 400 mg/day): −8.7 | MADRS sadness (Items 1 + 2), mean result ([2]; ITT (LOCF), TC 400 mg/day): −3.4 | MADRS total score (primary), mean result ([2]; ITT (LOCF), TC 400 mg/day): −12.4 | superiority to placebo on the primary endpoint (change from baseline at Week 6 in MADRS total score) ([2]; ITT (LOCF), test compound 200 mg and 400 mg, paroxetine 20 mg/day): Neither the 200-mg nor the 400-mg dose of the test compound was statistically significantly superior to placebo | MADRS response rate [2, 3]: 40% | MADRS response rate [2, 4]: 50% | MADRS remission rate [2, 3]: 20% | MADRS remission rate [2, 4]: 29% | CGI-S score, mean result [2, 3]: −1.5 | MADRS total score, mean result [2, 3]: −14.8 | CGI-S score, mean result [2, 4]: −1.6 | MADRS total score, mean result [2, 4]: −15.0 | superiority to placebo on the primary endpoint, men ([2]; men, test compound 200 mg): nominally statistically significant superiority to placebo | ABCD questionnaire items with statistically significant superiority to placebo ([2]; test compound 200 mg): 14 items | ABCD questionnaire items with statistically significant superiority to placebo ([2]; test compound 400 mg): 8 items | superiority to placebo on the primary endpoint, women ([2]; women, test compound 400 mg): statistically significant superiority to placebo
